Source: US6344180B1 (BioNebraska, Inc., priority 1999, dated 2002)
Ends that are not written are not given here.

How the values were obtained:
β-cell secretion [1] = assay: Part three: combined glucose+GLP-1 injection vs hyperglycemic clamp with L-arginine, maximal secretory capacity; format: in vivo, human; conditions: for Incremental C-peptide response (peak minus concentration at time of injection) / Incremental insulin response (peak minus concentration at time of injection): hyperglycemic clamp 30 mmol/l, 5 g L-arginine bolus at 45 min; for Absolute mean peak C-peptide concentration / Absolute mean peak insulin concentration: hyperglycemic clamp with 5 g L-arginine
Text: (§1) The present study was divided into three parts.
(§2) Part one: Six type II diabetic patients (four men and two women, mean (range), age: 56 years (48-67 years); BMI: 31.1 kg/m^2 (27-38 kg/m^2); HbA1c; 9.6% (7,0-12.5%) ) and 6 healthy subjects individually matched for sex, age and BMI (age: 56 years (51-70 years); BMI: 31.6 kg/m^2 (26-37 kg/M^2); HbA1c: 5.5% (5.2-5.8%)). […] Part three 8 type II diabetic patients (seven men and one woman, age: 55 years (49-69 years); BMI: 30.9 kg/m^2 (27-35 kg/M^2); HbA1c: 7.6% (6.3-8.6%)) and 8 healthy subjects (age: 55 years (51-64 years); BMI 31.1 kg/m^2 (25-38 kg/m^2); HbA1c: 5.4% (5.0-6.0%)) participated. Four patients were treated with diet alone while four were treated with diet and oral antidiabetics (sulphonylureas and/or biguanides). […] All type II diabetic patients were diagnosed according to the criteria of National Diabetes Data Group. […] All agreed to participate after oral and written information.
(§3) All oral antidiabetics were discontinued 72 hours before the study.
During the hyperglycemic clamp, glucose (50% w/v) was injected at time zero to increase the plasma glucose to 30 mmol/l (calculated as follows: (30 mmol/l−fasting plasma glucose)×35 mg glucose×weight in kilogram). Plasma glucose was kept at 30 mmol/l by continuous infusion of glucose, which was adjusted according to a bedside measurement of plasma glucose ever 5 minutes. At 45 minutes, 5 g L-arginine monohydrochloride was injected as a bolus during 30 seconds. Blood was sampled 15, 10 and 0 minutes before and 5, 10, 15, 20, 25, 30, 35, 40, 45, 47, 48, 49, 51, 53, 55, 60, 65, 70, 75 and 90 minutes after elevation of plasma glucose. The L-arginine was dissolved in 50 ml of sterilized water and dispensed into glass ampoules and stored at 4° C. until the day of the experiment. Blood was sampled into fluoride tubes for measurement of glucose and into chilled EDTA tubes with aprotinin (500 KIU/ml blood; Trasylol, Bayer, Leverkusen, Germany) for peptide analyses. Tubes were immediately cooled on ice and centrifuged within 20 minutes at 4° C., and plasma was stored at −20° C. until analysis.
(§4) Plasma glucose concentrations were measured during the experiments using a glucose oxidase method with a Glucose Analyzer (Yellow Springs Instrument Model 23 A, USA). Plasma insulin concentrations were measured according to Albano et al using standards of human insulin and antibody code no. 2004. The sensitivity of the assay is approximately 3 pmol/l, the intraassay coefficient of variation is 8% at 48 pmol/l. C-peptide concentrations were determined by radioimmunoassay (RIA) as described by Heding et al employing the polyclonal antibody M1230[12]. […] The detection limit is approximately 60 pmol/l, the intra-assay coefficient of variance is 5%, interassay coefficient of variation is 7.3%. […] The assay has a detection limit of 5 pmol/l. […] The detection limit is 1 pmol/l.

β-cell secretion [2] = assay: Part one: dose-response of I.V. bolus GLP-1 compared with glucagon test, peak plasma insulin and C-peptide; format: in vivo, human; conditions: glucagon test 1 mg I.V. bolus
Text: as §1, §2, §3
(§5) Meal test: Venous blood was drawn 15, 10 and 0 min before and 15, 30, 45, 60, 75, 90, 120, 150 and 180 minutes after ingestion of a standard breakfast meal. […] The peptide was dissolved in sterilized water containing 2% human serum albumin (Albumin Nordisk, Novo Nordisk, Bagsvaerd, Denmark, guaranteed to be free of hepatitis-B surface antigen and human immunodeficiency virus antibodies) and subjected to sterile filtration. Appropriate amounts of peptide for each experimental subject were dispensed into glass ampoules and stored frozen under sterile conditions until the day of the experiment. Part two: β-cell function was examined on 3 different days. […] Fifteen minutes later plasma glucose was elevated to 15 mmol/l by intravenous glucose (50% w/v) administration as described above.
as §4

β-cell secretion [3] = assay: Part two: 2.5 nmol GLP-1, glucagon test, combined glucose+GLP-1 injection and s.c. GLP-1, peak plasma insulin and C-peptide; format: in vivo, human; conditions: glucagon test 1 mg I.V.
Text: as §1, §2, §3, §5, §4

pancreas = conditions: cited from earlier work
[4] = tested on: insulin secretion and blood glucose; conditions: infusions in patients with type II diabetes; cited from earlier work

Cl.N=C(N)NCCC[C@H](N)C(=O)O [L-arginine, L-arginine monohydrochloride]
Incremental C-peptide response (peak minus concentration at time of injection) (β-cell secretion [1]; healthy subjects): 3391 ± 388 pmol/L
Incremental insulin response (peak minus concentration at time of injection) (β-cell secretion [1]; healthy subjects): 1921 ± 338 pmol/L
Incremental C-peptide response (peak minus concentration at time of injection) (β-cell secretion [1]; type II diabetic patients): 1360 ± 250 pmol/L
Incremental insulin response (peak minus concentration at time of injection) (β-cell secretion [1]; type II diabetic patients): 628 ± 226 pmol/L
Absolute mean peak C-peptide concentration (β-cell secretion [1]; healthy subjects): 6047 ± 652 pmol/L
Absolute mean peak insulin concentration (β-cell secretion [1]; healthy subjects): 2384 ± 452 pmol/L
Absolute mean peak C-peptide concentration (β-cell secretion [1]; type II diabetic patients): 3043 ± 508 pmol/L
Absolute mean peak insulin concentration (β-cell secretion [1]; type II diabetic patients): 816 ± 268 pmol/L

glucagon
Peak C-peptide concentration (mean ± SEM) (β-cell secretion [2]; healthy controls): 1874 ± 158 pmol/L
Peak insulin concentration (mean ± SEM) (β-cell secretion [2]; healthy controls): 360 ± 39 pmol/L
Peak C-peptide concentration (mean ± SEM) (β-cell secretion [2]; type 2 diabetic patients): 1643 ± 178 pmol/L
Peak insulin concentration (mean ± SEM) (β-cell secretion [2]; type 2 diabetic patients): 265 ± 45 pmol/L
Peak C-peptide concentration (mean ± SEM) (β-cell secretion [3]; healthy controls): 1995 ± 99 pmol/L
Peak insulin concentration (mean ± SEM) (β-cell secretion [3]; healthy controls): 420 ± 61 pmol/L
Peak C-peptide concentration (mean ± SEM) (β-cell secretion [3]; type 2 diabetic patients): 1780 ± 160 pmol/L
Peak insulin concentration (mean ± SEM) (β-cell secretion [3]; type 2 diabetic patients): 329 ± 50 pmol/L

Glu Gly Thr Phe Thr Ser Asp Val Ser Ser Tyr Leu Glu Gly Gln Ala Ala Lys Glu Phe Ile Ala Trp Leu Val Lys Gly Arg (NH2) (EGTFTSDVSSYLEGQAAKEFIAWLVKGR-NH2; listed as Homo sapiens) [SEQ. ID NO:6]
Stimulation of production or release of insulin from the pancreas (pancreas): do not stimulate

Glu Gly Thr Phe Thr Ser Asp Val Ser Ser Tyr Leu Glu Gly Gln Ala Ala Lys Glu Phe Ile Ala Trp Leu Val Lys Gly Arg Gly (EGTFTSDVSSYLEGQAAKEFIAWLVKGRG; listed as Homo sapiens) [SEQ. ID NO:5]
Stimulation of production or release of insulin from the pancreas (pancreas): do not stimulate

glucose-dependent insulinotropic polypeptide [GIP]
Effect on insulin secretion and blood glucose [4]: little or no effect
